Laboratory results as given in patent US20240025892A1 (priority 2020, published 2024).

Key:
[1] = test system: CRTC2 (TORC2); experiment: CRTC2 nuclear translocation (PathHunter U2OS); assay type: cell-based; details: maximal CRTC2 nuclear translocation, U2OS cells, 90 minutes, maximum dose 10 μM
Description: PathHunter® Nuclear Translocation cell lines are engineered to co-express two fusion proteins: a) Enzyme Donor (ED) tagged target protein; b) an Enzyme Acceptor (EA) tagged TAZ domain, derived from the CBP/P300 transcription factor, that localizes to the nucleus. Activation of the signaling pathway induces translocation of the ED-tagged target protein into the nucleus, which will force complementation of the two enzyme fragments, and result in the formation of a functional enzyme that will hydrolyze substrate and generate a chemiluminescent signal. U2OS CRTC2 (TORC2) translocation assays were performed in 384 well plates at Eurofins DiscoverX (Freemont, CA). Cells were treated with compounds for 90 minutes in experimental duplicates in 5 point dose response format (4-fold serial dilutions with a maximum dose of 10 μM) followed by […] readout on an Envision 2104 Multilabel Reader. In all experiments, forskolin was used as a positive control and maximal CRTC2 nuclear translocation induced by each compound is expressed as a percentage of the signal stimulated by forskolin.
Representative data are shown in FIG. 4A and presented as percent of the positive control (forskolin) signal.

[2] = biological target: Recombinant SIK2 (Homo sapiens (Human), UniProt Q9H0K1); experiment: biochemical; details: recombinant SIK2 2.5 nM, 1 μM ATP; read-out: SIK2 IC50
Chain of Recombinant SIK2 (Q9H0K1 whole entry): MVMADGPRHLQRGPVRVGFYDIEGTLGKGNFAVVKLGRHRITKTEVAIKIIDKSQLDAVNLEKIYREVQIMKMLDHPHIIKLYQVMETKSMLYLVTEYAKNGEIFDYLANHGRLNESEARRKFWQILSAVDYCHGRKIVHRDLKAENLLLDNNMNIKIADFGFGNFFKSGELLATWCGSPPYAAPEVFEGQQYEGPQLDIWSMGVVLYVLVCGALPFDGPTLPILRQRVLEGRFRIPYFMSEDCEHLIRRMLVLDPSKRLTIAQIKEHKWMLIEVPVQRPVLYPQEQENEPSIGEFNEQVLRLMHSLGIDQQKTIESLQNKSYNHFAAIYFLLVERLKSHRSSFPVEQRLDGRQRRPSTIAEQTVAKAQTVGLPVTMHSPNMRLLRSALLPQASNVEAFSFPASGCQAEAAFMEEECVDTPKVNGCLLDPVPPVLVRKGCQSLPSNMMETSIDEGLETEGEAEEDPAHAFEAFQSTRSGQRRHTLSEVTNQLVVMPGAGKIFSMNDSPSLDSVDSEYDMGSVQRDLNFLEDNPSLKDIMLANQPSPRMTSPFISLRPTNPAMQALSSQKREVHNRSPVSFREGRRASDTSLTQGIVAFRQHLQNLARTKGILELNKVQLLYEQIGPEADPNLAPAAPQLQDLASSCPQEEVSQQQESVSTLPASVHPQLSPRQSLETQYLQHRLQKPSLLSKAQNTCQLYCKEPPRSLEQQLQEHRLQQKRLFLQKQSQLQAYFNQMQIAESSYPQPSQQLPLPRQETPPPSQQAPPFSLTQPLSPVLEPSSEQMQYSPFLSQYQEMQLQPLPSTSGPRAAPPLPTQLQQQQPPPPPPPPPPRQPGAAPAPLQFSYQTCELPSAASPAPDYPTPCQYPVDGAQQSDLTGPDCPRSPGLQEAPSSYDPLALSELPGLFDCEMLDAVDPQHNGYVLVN
Method: (§1) Assays were performed in base reaction buffer (20 mM Hepes (pH 7.5), 10 mM MgCl2, 1 mM EGTA, 0.02% Brij35, 0.02 mg/mL BSA, 0.1 mM Na3VO4, 2 mM DTT, 1% DMSO). Compounds were dissolved in 100% DMSO in a 10 mM stock. […] Assays were performed for 20 minutes at room temperature, after which time ^33P-ATP (10 μCi/μL) was added followed by incubation for another 120 minutes at room temperature. Thereafter, radioactivity incorporated into the pEY peptide substrate was detected by filter-binding method. Kinase activity data were expressed as the percent remaining kinase activity in test samples compared to DMSO reactions. IC50 values and curve fits were obtained using Prism (GraphPad Software).

[3] = test system: RANKL; experiment: RANKL gene expression in Ocy454 cells (RT-qPCR); details: maximal RANKL fold induction versus DMSO, four hours;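 also: Ocy454 cells moved to 37 °C for osteocytic differentiation before compound exposure, RANKL mRNA by SYBR Green qRT-PCR, 2^−ΔΔCT with β-actin normalization, duplicate wells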
[4] = biological target: SIK3 (Homo sapiens (Human), UniProt Q9Y2K2); experiment: In vitro SIK3 kinase assay; assay type: biochemical
Chain of SIK3 (Q9Y2K2 whole entry): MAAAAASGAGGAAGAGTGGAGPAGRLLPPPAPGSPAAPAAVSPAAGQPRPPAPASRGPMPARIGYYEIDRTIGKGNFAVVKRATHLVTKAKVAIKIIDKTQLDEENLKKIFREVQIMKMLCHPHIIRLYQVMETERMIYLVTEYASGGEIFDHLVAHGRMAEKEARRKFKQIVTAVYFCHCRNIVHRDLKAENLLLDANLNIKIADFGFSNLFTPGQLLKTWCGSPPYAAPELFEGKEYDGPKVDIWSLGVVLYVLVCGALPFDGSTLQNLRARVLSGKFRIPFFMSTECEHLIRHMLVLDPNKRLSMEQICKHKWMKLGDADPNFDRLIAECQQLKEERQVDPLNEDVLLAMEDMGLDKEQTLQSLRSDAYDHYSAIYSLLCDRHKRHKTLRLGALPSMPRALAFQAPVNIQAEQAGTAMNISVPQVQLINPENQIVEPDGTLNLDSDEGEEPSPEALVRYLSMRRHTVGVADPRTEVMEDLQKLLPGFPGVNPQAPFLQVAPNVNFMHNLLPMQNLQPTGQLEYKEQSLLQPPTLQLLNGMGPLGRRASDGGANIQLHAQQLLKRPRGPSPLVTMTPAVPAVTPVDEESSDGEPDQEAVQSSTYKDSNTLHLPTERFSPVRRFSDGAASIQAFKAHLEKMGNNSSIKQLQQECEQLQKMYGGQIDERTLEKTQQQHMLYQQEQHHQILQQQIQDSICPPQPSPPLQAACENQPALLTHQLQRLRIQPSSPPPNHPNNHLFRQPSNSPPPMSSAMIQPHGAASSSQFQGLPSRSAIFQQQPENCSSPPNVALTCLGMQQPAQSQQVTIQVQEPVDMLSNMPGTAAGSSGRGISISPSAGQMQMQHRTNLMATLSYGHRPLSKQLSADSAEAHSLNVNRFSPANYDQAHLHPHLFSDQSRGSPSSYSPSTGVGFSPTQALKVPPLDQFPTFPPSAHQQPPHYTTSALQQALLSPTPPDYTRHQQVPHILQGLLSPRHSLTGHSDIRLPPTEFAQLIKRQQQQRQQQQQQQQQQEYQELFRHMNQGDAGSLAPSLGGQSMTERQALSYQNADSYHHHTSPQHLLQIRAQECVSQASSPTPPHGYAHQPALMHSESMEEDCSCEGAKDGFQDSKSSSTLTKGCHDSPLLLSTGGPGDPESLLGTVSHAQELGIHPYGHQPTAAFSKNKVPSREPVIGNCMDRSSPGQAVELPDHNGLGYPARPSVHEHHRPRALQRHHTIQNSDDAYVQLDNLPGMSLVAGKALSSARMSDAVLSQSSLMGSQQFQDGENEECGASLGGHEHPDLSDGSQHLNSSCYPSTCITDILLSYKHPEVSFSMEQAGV
Method: as §1

[5] = biological target: SIK1 (Homo sapiens (Human), UniProt P57059); experiment: In vitro SIK1 kinase assay; assay type: biochemical
Chain of SIK1 (P57059 whole entry): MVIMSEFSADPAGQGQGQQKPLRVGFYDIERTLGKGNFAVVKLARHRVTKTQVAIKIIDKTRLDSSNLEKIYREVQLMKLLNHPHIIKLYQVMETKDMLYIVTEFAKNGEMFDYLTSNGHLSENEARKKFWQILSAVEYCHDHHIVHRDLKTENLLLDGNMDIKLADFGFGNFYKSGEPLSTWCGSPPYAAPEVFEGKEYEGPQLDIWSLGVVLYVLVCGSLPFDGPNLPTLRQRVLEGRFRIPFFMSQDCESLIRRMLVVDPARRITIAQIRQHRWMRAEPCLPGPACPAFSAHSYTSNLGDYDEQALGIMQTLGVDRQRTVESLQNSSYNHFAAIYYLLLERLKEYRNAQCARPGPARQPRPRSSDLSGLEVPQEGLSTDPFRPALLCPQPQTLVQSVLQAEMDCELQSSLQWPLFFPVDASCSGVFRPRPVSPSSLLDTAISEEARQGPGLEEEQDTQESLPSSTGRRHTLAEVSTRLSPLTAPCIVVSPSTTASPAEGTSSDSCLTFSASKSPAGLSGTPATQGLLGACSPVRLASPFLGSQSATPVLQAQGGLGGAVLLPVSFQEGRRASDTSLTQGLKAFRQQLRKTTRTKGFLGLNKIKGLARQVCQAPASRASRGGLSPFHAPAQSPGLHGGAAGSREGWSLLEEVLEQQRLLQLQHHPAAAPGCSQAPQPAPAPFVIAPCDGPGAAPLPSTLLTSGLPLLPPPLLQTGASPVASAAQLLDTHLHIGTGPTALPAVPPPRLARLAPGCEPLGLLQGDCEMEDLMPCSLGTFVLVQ
Method: as §1

Row | SMILES | CRTC2 Efficacy (% of forskolin) [1] | IC50 [2] [nM] | RANKL Fold Induction [3] [fold] | IC50 [4] [nM] | IC50 [5] [nM]
1 | CC1(COc2ccn3c(-c4ccc(C#N)cc4)cnc3c2)COC1 [Example 38, 4-[7-[(3-Methyloxetan-3-yl)methoxy]imidazo[1,2-a]pyridin-3-yl]benzonitrile] | 10.1 % of forskolin | 211 | 0.37 | – | –
2 | Cn1c(CNC(=O)c2ccn3c(-c4ccc(C#N)cc4)cnc3c2)nc2ccccc21 [Example 23, 3-(4-cyanophenyl)-N-((1-methyl-1H-benzo[d]imidazol-2-yl)methyl)imidazo[1,2-a]pyridine-7-carboxamide] | 19.8 % of forskolin | 14.3 | – | 861 | –
3 | N#Cc1ccc(-c2cnc3cc(C(=O)NCc4nc5ccccc5o4)ccn23)cc1 [Example 26, N-(benzo[d]oxazol-2-ylmethyl)-3-(4-cyanophenyl)imidazo[1,2-a]pyridine-7-carboxamide] | 1.3 % of forskolin | 83 | 0.55 | – | –
4 | CCn1cc(-c2ccn3c(-c4ccc(C#N)cc4)cnc3c2)cn1 [Example 45, 4-[7-(1-Ethylpyrazol-4-yl)imidazo[1,2-a]pyridin-3-yl]benzonitrile] | 85 % of forskolin | – | 9.41 | – | –
5 | CC1(COc2ccc3c(c2)ncn3-c2ccc3cccc(N4CCCC4CN)c3n2)COC1 (stereo not shown) [Example 8, (1-(2-(5-((3-methyloxetan-3-yl)methoxy)-1H-benzo[d]imidazol-1-yl)quinolin-8-yl)pyrrolidin-2-yl)methanamine] | 64.4 % of forskolin | 11.6 | 17.47 | 30.8 | 50.1
6 | NC1CCN(c2cccc3ncc(-n4cnc5cc(OCC6CS(=O)(=O)C6)ccc54)nc23)CC1 [Example 14, 3-(((1-(8-(4-Aminopiperidin-1-yl)quinoxalin-2-yl)-1H-benzo[d]imidazol-5-yl)oxy)methyl)thietane 1,1-dioxide] | 94.2 % of forskolin | 16.1 | 1.26 | 6.08 | 109
7 | CCc1nnc(-c2c(OC)cc(-c3cnn4cc(-c5cnn(C6CC6)c5)ccc34)cc2OC)o1 [Example 53, 2-(4-(6-(1-cyclopropyl-1H-pyrazol-4-yl)pyrazolo[1,5-a]pyridin-3-yl)-2,6-dimethoxyphenyl)-5-ethyl-1,3,4-oxadiazole] | – | 1.77 | – | 2.62 | 17.4
8 | CC1(COc2ccc3c(c2)ncn3-c2ccc3cccc(N4CC5(CC(N)C5)C4)c3n2)COC1 [Example 2, 2-[2-[5-[(3-Methyloxetan-3-yl)methoxy]benzimidazol-1-yl]-8-quinolyl]-2-azaspiro[3.3]heptan-6-amine] | 162 % of forskolin | 42.1 | 1.43 | 38.7 | 625
9 | CN1CCC(c2cccc3ccc(-n4cnc5cc(OCC6(C)COC6)ccc54)nc23)C1 (stereo not shown) [Example 17, 2-(5-((3-Methyloxetan-3-yl)methoxy)-1H-benzo[d]imidazol-1-yl)-8-(1-methylpyrrolidin-3-yl)quinoline] | – | 1.04 | 12.73 | 15.4 | 53.3
10 | CCc1nnc(-c2c(OC)cc(-c3cnc4cc(OCC5(C)COC5)ccn34)cc2OC)o1 [Example 39, 2-(2,6-dimethoxy-4-(7-((3-methyloxetan-3-yl)methoxy)imidazo[1,2-a]pyridin-3-yl)phenyl)-5-ethyl-1,3,4-oxadiazole] | – | 136 | – | 83.6 | 2680
11 | N#Cc1ccc(-c2cnc3cc(C(=O)N4CCn5c(nc6ccccc65)C4)ccn23)cc1 [Example 28, 4-(7-(1,2,3,4-tetrahydrobenzo[4,5]imidazo[1,2-a]pyrazine-2-carbonyl)imidazo[1,2-a]pyridin-3-yl)benzonitrile] | 3.4 % of forskolin | 597 | 1.25 | 8090 | –
12 | CC1(COc2ccc3c(c2)ncn3-c2ccc3cccc(C4CCNC4)c3n2)COC1 (stereo not shown) [Example 16, 2-(5-((3-Methyloxetan-3-yl)methoxy)-1H-benzo[d]imidazol-1-yl)-8-(pyrrolidin-3-yl)quinoline] | – | 3.39 | 27.76 | 4.43 | 16.6
13 | CN(Cc1nc2ccccc2n1C)C(=O)c1ccn2c(-c3ccc(C#N)cc3)cnc2c1 [Example 29, 3-(4-Cyanophenyl)-N-methyl-N-[(1-methylbenzimidazol-2-yl)methyl]imidazo[1,2-a]pyridine-7-carboxamide] | 2.8 % of forskolin | 608 | 1.48 | 8340 | –
14 | Cc1ccc(CNC(=O)c2ccn3c(-c4ccc(C#N)cc4)cnc3c2)cn1 [Example 19, 3-(4-cyanophenyl)-N-[(6-methyl-3-pyridyl)methyl]imidazo[1,2-a]pyridine-7-carboxamide] | 27 % of forskolin | – | 1.04 | – | –
15 | CCn1cc(-c2ccn3c(-c4ccc(-c5noc(C)n5)cc4)cnc3c2)cn1 [Example 62, 3-(4-(7-(1-Ethyl-1H-pyrazol-4-yl)imidazo[1,2-a]pyridin-3-yl)phenyl)-5-methyl-1,2,4-oxadiazole] | 8.6 % of forskolin | 253 | – | 1090 | 1130
16 | COc1cc(-c2cnc3cc(-c4cnn(C)c4)ccn23)cc(OC)c1-c1nnc(C2CC2)o1 [Example 60, 2-cyclopropyl-5-(2,6-dimethoxy-4-(7-(1-methyl-1H-pyrazol-4-yl)imidazo[1,2-a]pyridin-3-yl)phenyl)-1,3,4-oxadiazole] | – | 1.49 | 307.25 | 1.64 | 4.45
17 | CCc1nnc(-c2c(OC)cc(-c3cnc4cc(OCc5ccc(C)nc5)ccn34)cc2OC)o1 [Example 42, 2-[2,6-Dimethoxy-4-[7-[(6-methyl-3-pyridyl)methoxy]imidazo[1,2-a]pyridin-3-yl]phenyl]-5-ethyl-1,3,4-oxadiazole] | – | 37 | – | 47 | 1180
18 | Cc1ccc(CCOc2ccn3c(-c4ccc(C#N)cc4)cnc3c2)cn1 [Example 41, 4-[7-[2-(6-Methyl-3-pyridyl)ethoxy]imidazo[1,2-a]pyridin-3-yl]benzonitrile] | 44.2 % of forskolin | – | 2.61 | 12.6 | 233
19 | Cc1ccc(CN(C)C(=O)c2ccn3c(-c4ccc(C#N)cc4)cnc3c2)cn1 [Example 30, 3-(4-Cyanophenyl)-N-methyl-N-((6-methylpyridin-3-yl)methyl)imidazo[1,2-a]pyridine-7-carboxamide] | 1.7 % of forskolin | 1700 | – | – | –
20 | N#Cc1ccc(-c2cnc3cc(C(=O)NCc4ccnnc4)ccn23)cc1 [Example 20, 3-(4-cyanophenyl)-N-(pyridazin-4-ylmethyl)imidazo[1,2-a]pyridine-7-carboxamide] | 9.4 % of forskolin | 109 | – | – | –
21 | CCn1cc(-c2ccn3c(-c4ccc(C#N)c(C)c4)cnc3c2)cn1 [Example 47, 4-(7-(1-ethyl-1H-pyrazol-4-yl)imidazo[1,2-a]pyridin-3-yl)-2-methylbenzonitrile] | – | 0.855 | 17.43 | 4.16 | 8.34
